Data taken from patent US20100098690A1, “PHARMACEUTICAL COMPOSITION” (KYOWA HAKKO KIRIN CO., LTD., priority 2007, published 2010).

Experiments:
[1] = test system: human multiple myeloma cell line (NCI-H929); assay: In vitro cell growth inhibition assay (WST-1) with isobologram analysis of combination effect; type: cell-based; conditions: combined with the test compound (hydrochloride of Compound 22), 72 hours, isobologram method
Procedure: (§1) Measurement of the cell growth inhibition rate of the test compound and a combined compound on a human multiple myeloma cell line (NCI-H929), a human non-small-cell lung cancer cell line (PC-9), a human breast cancer cell line (BT-474), a human renal cancer cell line (VMRC-RCZ), a human chronic myeloid leukemia cell line (K-562) and a human acute myeloid leukemia cell line (MOLM-13) was carried out in the following manner.
(§2) For the culture of NCI-H929, Roswell Park Memorial Institute's Medium (RPMI) 1640 medium (Invitrogen) containing 10% fetal calf serum (FCS, Invitrogen), 10 mmol/L HEPES (Invitrogen), 1 mmol/L sodium pyruvate (Invitrogen), 4.5 g/L glucose (Sigma-Aldrich) and 50 μmol/L 2-mercaptoethanol (Invitrogen) was used. For the culture of PC-9, RPMI1640 medium containing 10% FCS was used. For the culture of BT-474, Dulbecco's Modified Eagle Medium (DMEM) (Invitrogen) containing 10% FCS, 1 mmol/L sodium pyruvate, 1.2 mmol/L oxalacetic acid (Sigma-Aldrich), 0.01 mg/mL insulin (Sigma-Aldrich), 10% NCTC-135 medium (Sigma-Aldrich), 4 mmol/L L-glutamine (Invitrogen), 1.5 g/L sodium hydrogencarbonate (Invitrogen) and 4.5 g/L glucose was used.
(§3) NCI-H929 cells were suspended to 12.5×10^4 cells/mL with culture medium (PC-9, 0.625×10^4 cells/mL; BT-474, 12.5×10^4 cells/mL; VMRC-RCZ, 2.5×10^4 cells/mL; MOLM-13, 12.5×10^4 cells/mL; K-562, 6.25×10^4 cells/mL), and the cell suspensions were seeded to the wells of 96-well U-bottom plates (Nalge Nunc International) in an amount of 80 μL/well, followed by incubation in a 5% CO2 incubator at 37° C. for 5 hours (PC-9, BT-474 and VMRC-RCZ, 24 hours; MOLM-13 and K-562, 4 hours).
(§4) The solutions of the test compound and the combined compound diluted with culture medium were added to the plates in an amount of 10 μL/well, respectively, followed by further incubation in a 5% CO2 incubator at 37° C. for 72 hours. WST-1 reagent {4-[3-(4-iodophenyl)-2-(4-nitrophenyl)-2H-5-tetrazolio]-1,3-benzene disulfonate sodium salt} (Roche Diagnostics) was added to the wells in an amount of 10 μL/well and the plates were incubated in a CO2 incubator for 2 hours at 37° C. The absorbance at 450 nm (control wavelength: 655 nm) was measured using a microplate spectrophotometer SPECTRA max 340PC (Molecular Devices). Separately, the solvent used for preparation of each compound solution alone was added to the wells, and the absorbance was measured in the same manner as above after 72-hour incubation carried out in the same manner as above and also immediately after the addition of the solvent. The cell growth inhibition rate on the cells in the compound-added groups (groups treated with the test compound alone, the combined compound alone, or both compounds) was calculated according to the following equation.
(§5) The combined effect was analyzed using the isobologram method [International Journal of Radiation Oncology, Biology, Physics, Vol. 5, p. 85 (1979)]. Judgment of the efficacy of combination therapy was carried out according to the method described in International Journal of Radiation Oncology, Biology, Physics, Vol. 5, p. 85 (1979), Ibid., Vol. 5, p. 1145 (1979), etc.

[2] = test system: human multiple myeloma NCI-H929 cells; assay: Antitumor effect in a mouse model transplanted with human multiple myeloma NCI-H929 cells (combination with bortezomib); type: in vivo, Fox C.B-17/Icr-scidJcl mice; conditions: day 14; test compound 50 mg/kg i.v. and bortezomib 1 mg/kg i.v., once a day on days 0, 3, 7 and 10
Procedure: On the day before the transplantation of cancer cells, 0.3 mg/mouse of an anti-asialo GM1 antibody (ca. 10 mg protein/1 mL vial) (Wako Pure Chemical Industries, Ltd.) was intraperitoneally administered to Fox C.B-17/Icr-scidJcl mice (Clea Japan, Inc.). NCI-H929 cells were cultured in RPMI1640 medium containing 10% fetal calf serum (FCS) in a 5% CO2 incubator at 37° C. and then transplanted into the abdominal subcutaneous tissue of the mice in an amount of 1×10^7 cells/mouse. Ten days after the transplantation, the longer diameter and shorter diameter of the tumor subcutaneously grown were measured with slide calipers, and the tumor volume was calculated according to the following equation.
(§7) At the same time, the body weight of each mouse was measured, and the mice were divided into the following groups of 5 mice each so that the mean tumor volume and the mean body weight become uniform. The day was defined as day 0 of the administration test, and administration was started.
The test compound was dissolved in physiological saline (Otsuka Pharmaceutical Co., Ltd.) at a concentration of 5 mg/mL and intravenously administered from the caudal vein in a dose of 0.01 mL/g body weight of mouse (50 mg/kg) once a day on days 0, 3, 7 and 10. […]

[3] = test system: human renal cancer cell line (VMRC-RCZ); assay: In vitro cell growth inhibition assay (WST-1) with isobologram analysis of combination effect; type: cell-based; conditions: combined with the test compound (hydrochloride of Compound 22), 72 hours, isobologram method
Procedure: as §1
For the culture of VMRC-RCZ, Minimum Essential Medium (MEM) (Invitrogen) containing 10% FCS, 0.1 mmol/L Non-Essential Amino Acids (NEAA, Invitrogen), 4 mmol/L HEPES, 2 mmol/L L-glutamine and 1.5 g/L sodium hydrogencarbonate was used. […]
The solutions of the test compound and the combined compound diluted with culture medium were added to the plates in an amount of 10 μL/well, respectively, followed by further incubation in a 5% CO2 incubator at 37° C. for 72 hours. […] The absorbance at 450 nm (control wavelength: 655 nm) was measured using a microplate spectrophotometer SPECTRA max 340PC (Molecular Devices). Separately, the solvent used for preparation of each compound solution alone was added to the wells, and the absorbance was measured in the same manner as above after 72-hour incubation carried out in the same manner as above and also immediately after the addition of the solvent. […]

[4] = test system: human non-small-cell lung cancer cell line (PC-9); assay: as above; type: cell-based; conditions: combined with the test compound (hydrochloride of Compound 22), 72 hours, isobologram method
Procedure: as §1, §2, §3, §4, §5

[5] = test system: human lung cancer NCI-H596 cells; assay: Antitumor effect in a mouse model transplanted with human lung cancer NCI-H596 cells; type: in vivo, BALB/cAJcl-nu mice; conditions: day 11; test compound 100 mg/kg i.v. twice a day x 5 days; gefitinib 100 mg/kg oral once a day x 5 days
Procedure: NCI-H596 cells were cultured in RPMI1640 medium containing 10% fetal calf serum (FCS) in a 5% CO2 incubator at 37° C. and then transplanted into the abdominal subcutaneous tissue of BALB/cAJcl-nu mice (Clea Japan, Inc.) in an amount of 1×10^7 cells/mouse. From the mice in which tumor grew, the tumor was excised and the tumor tissue was cut into ca. 8 mm^3 tissue pieces and then transplanted into the abdominal subcutaneous tissue of BALB/cAJcl-nu mice (Clea Japan, Inc.) using a trocar. Seventeen days after the transplantation, the longer diameter and shorter diameter of the subcutaneous tumor were measured with slide calipers, and the tumor volume was calculated according to the following equation.
as §7
(§8) The test compound was dissolved in physiological saline (Otsuka Pharmaceutical Co., Ltd.) at a concentration of 10 mg/mL and intravenously administered from the caudal vein in a dose of 0.01 mL/g body weight of mouse (100 mg/kg) twice a day for consecutive days from day 0 to day 4. […]

[6] = test system: human breast cancer KPL-4 cells; assay: Antitumor effect in a mouse model transplanted with human breast cancer KPL-4 cells; type: in vivo, BALB/cAJcl-nu mice; conditions: day 10; test compound 100 mg/kg i.v. twice a day x 5 days; paclitaxel 25 mg/kg i.v. days 0 and 3; trastuzumab 50 mg/kg i.v. days 0, 3, 7, 10, 14 and 17
Procedure: KPL-4 cells were cultured in DMEM containing 10% fetal calf serum (FCS) in a 5% CO2 incubator at 37° C. and then transplanted into the abdominal subcutaneous tissue of BALB/cAJcl-nu mice (Clea Japan, Inc.) in an amount of 1×10^7 cells/mouse. From the mice in which tumor grew, the tumor was excised and the tumor tissue was cut into ca. 8 mm^3 tissue pieces and then transplanted into the abdominal subcutaneous tissue of BALB/cAJcl-nu mice (Clea Japan, Inc.) using a trocar. Eighteen days after the transplantation, the longer diameter and shorter diameter of the subcutaneous tumor were measured with slide calipers, and the tumor volume was calculated according to the following equation.
as §7, §8

[7] = test system: human multiple myeloma NCI-H929 cells; assay: Antitumor effect in a mouse model transplanted with human multiple myeloma NCI-H929 cells (combination with melphalan); type: in vivo, Fox C.B-17/Icr-scidJcl mice; conditions: day 14; test compound 50 mg/kg i.v. on days 0, 3, 7 and 10; melphalan 4 mg/kg i.v. on day 0
Procedure: On the day before the transplantation of cancer cells, 0.3 mg/mouse of an anti-asialo GM1 antibody (ca. 10 mg protein/1 mL vial) (Wako Pure Chemical Industries, Ltd.) was intraperitoneally administered to Fox C.B-17/Icr-scidJcl mice (Clea Japan, Inc.). NCI-H929 cells were cultured in RPMI1640 medium containing 10% fetal calf serum (FCS) in a 5% CO2 incubator at 37° C. and then transplanted into the abdominal subcutaneous tissue of the mice in an amount of 1×10^7 cells/mouse.
The day was defined as day 0 of the administration test, and administration was started.
The test compound was dissolved in physiological saline (Otsuka Pharmaceutical Co., Ltd.) at a concentration of 5 mg/mL and intravenously administered from the caudal vein in a dose of 0.01 mL/g body weight of mouse (50 mg/kg) once a day on days 0, 3, 7 and 10.
Melphalan was suspended in physiological saline (Otsuka Pharmaceutical Co., Ltd.) at a concentration of 0.4 mg/mL and intravenously administered from the caudal vein in a dose of 0.01 mL/g body weight of mouse (4 mg/kg) once a day on day 0. • A. Negative control group (Control): neither test compound nor melphalan administered • B. Test compound alone group: 50 mg/kg (once a day/administered on days 0, 3, 7 and 10) • C. […]
On and after day 0, the tumor volume was measured twice a week. […]

[8] = test system: human acute myeloid leukemia cell line (MOLM-13); assay: In vitro cell growth inhibition assay (WST-1) with isobologram analysis of combination effect; type: cell-based; conditions: combined with the test compound (hydrochloride of Compound 22), 72 hours, isobologram method
Procedure: as §1
(§6) For the culture of VMRC-RCZ, Minimum Essential Medium (MEM) (Invitrogen) containing 10% FCS, 0.1 mmol/L Non-Essential Amino Acids (NEAA, Invitrogen), 4 mmol/L HEPES, 2 mmol/L L-glutamine and 1.5 g/L sodium hydrogencarbonate was used. For the culture of K-562, Iscove's Modified Dulbecco's Medium (IMDM) (Invitrogen) containing 10% FCS was used. For the culture of MOLM-13, RPMI1640 medium containing 10% FCS was used.
as §3, with “hours). […]” for “hours).”

[9] = test system: human breast cancer cell line (BT-474); assay: as above; type: cell-based; conditions: combined with the test compound (hydrochloride of Compound 22), 72 hours, isobologram method
Procedure: as §1, §3
The solutions of the test compound and the combined compound diluted with culture medium were added to the plates in an amount of 10 μL/well, respectively, followed by further incubation in a 5% CO2 incubator at 37° C. for 72 hours. WST-1 reagent {4-[3-(4-iodophenyl)-2-(4-nitrophenyl)-2H-5-tetrazolio]-1,3-benzene disulfonate sodium salt} (Roche Diagnostics) was added to the wells in an amount of 10 μL/well and the plates were incubated in a CO2 incubator for 2 hours at 37° C.

[10] = test system: human chronic myeloid leukemia cell line (K-562); assay: as above; type: cell-based; conditions: combined with the test compound (hydrochloride of Compound 22), 72 hours, isobologram method
Procedure: as §1, §6
as §3, with “hours). […]” for “hours).”

Structure (SMILES)	Combination effect of test compound and each compound [1]	Combination effect of test compound and each compound [4]	also measured
CC(C)C[C@H](NC(=O)[C@H](Cc1ccccc1)NC(=O)c1cnccn1)B(O)O [Bortezomib, bortezomib]	Envelope of additivity		T/C (V/V0 of each group divided by V/V0 of the negative control group) [2]: 0.45
CNC(=O)c1cc(Oc2ccc(NC(=O)Nc3ccc(Cl)c(C(F)(F)F)c3)cc2)ccn1 [Sorafenib, sorafenib]			Combination effect of test compound and each compound [3]: Supra-additive
COc1cc2ncnc(Nc3ccc(F)c(Cl)c3)c2cc1OCCCN1CCOCC1 [Gefitinib, gefitinib]		Envelope of additivity	T/C (V/V0 of each group divided by V/V0 of the negative control group) [5]: 0.74
O=C(CCCCCCC(=O)Nc1ccccc1)NO [Vorinostat, vorinostat]	Sub-additive		
CC(=O)O[C@H]1C(=O)[C@@]2(C)[C@H]([C@H](OC(=O)c3ccccc3)[C@]3(O)C[C@H](OC(=O)[C@H](O)[C@@H](NC(=O)c4ccccc4)c4ccccc4)C(C)=C1C3(C)C)[C@]1(OC(C)=O)CO[C@@H]1C[C@@H]2O [Paclitaxel, paclitaxel]		Envelope of additivity	T/C (V/V0 of each group divided by V/V0 of the negative control group) [6]: 0.094
C#Cc1cccc(Nc2ncnc3cc(OCCOC)c(OCCOC)cc23)c1 [Erlotinib, erlotinib]		Sub-additive	
Nc1cccc2c1CN(C1CCC(=O)NC1=O)C2=O (stereo not shown) [Lenalidomide, lenalidomide]	Envelope of additivity		
N[C@@H](Cc1ccc(N(CCCl)CCCl)cc1)C(=O)O [Melphalan, melphalan]	Envelope of additivity		T/C (V/V0 of each group divided by V/V0 of the negative control group) [7]: 0.63
CC(=O)O[C@@]12CO[C@@H]1C[C@H](O)[C@@]1(C)C(=O)[C@H](O)C3=C(C)[C@@H](OC(=O)[C@H](O)[C@@H](NC(=O)OC(C)(C)C)c4ccccc4)C[C@@](O)([C@@H](OC(=O)c4ccccc4)[C@H]21)C3(C)C [Docetaxel, docetaxel]		Envelope of additivity	
Nc1ccn([C@@H]2O[C@H](CO)[C@@H](O)[C@@H]2O)c(=O)n1 [Cytarabine, cytarabine]			Combination effect of test compound and each compound [8]: Envelope of additivity
CS(=O)(=O)CCNCc1ccc(-c2ccc3ncnc(Nc4ccc(OCc5cccc(F)c5)c(Cl)c4)c3c2)o1 [Lapatinib, lapatinib]			Combination effect of test compound and each compound [9]: Envelope of additivity
Cc1ccc(NC(=O)c2ccc(CN3CCN(C)CC3)cc2)cc1Nc1nccc(-c2cccnc2)n1 [Imatinib, imatinib]			Combination effect of test compound and each compound [10]: Sub-additive
